Activity calls are given as the source filed them. The rule behind the calls is not given here.
Tests used:
B16 [1] = experiment: Antiproliferative activity against mouse B16 cells measured after 48 hrs by MTT assay; type: functional, cell-based; settings: B16, 48 h
DU-145 = experiment: Antiproliferative activity against human DU-145 cells at 25 uM measured after 48 hrs by MTT assay; type: functional, cell-based
B16 [2] = experiment: Upregulation of caspase 3 expression in mouse B16 cells at 9.70 uM measured after 48 hrs by Western blot analysis; type: functional, cell-based; settings: dose 9.7 µM
[3] = Drug metabolism in mouse plasma assessed as abiraterone Tmax at 20 mg/kg, IG; type: ADME, organism-based; settings: in vivo, po
B16 [4] = experiment: Anti-melanoma activity against mouse B16 cells xenografted in Kunming mouse model assessed as reduction in tumor volume at 60 mg/kg, IG measured after 7 to 27 days; type: functional, organism-based; settings: time 7-27 day
B16 [5] = experiment: Anti-melanoma activity against mouse B16 cells xenografted in Kunming mouse model assessed as increase in bax expression at 60 mg/kg, IG measured after 27 days by IHC staining based analysis; type: functional, organism-based; settings: time 27.0 day
[6] = Drug metabolism in mouse plasma assessed as abiraterone Cmax at 20 mg/kg, IG; type: ADME, organism-based; settings: in vivo, po
[7] = Induction of apoptosis in mouse B16 cells at 19.4 uM measured after 48 hrs by annexin-V/PI double staining based flow cytometry analysis relative to control; type: functional
[8] = Inhibition of cell invasion in mouse B16 cells at 9.70 uM measured after 24 hrs by crystal violet staining based analysis relative to control; type: functional
B16 [9] = experiment: Anti-melanoma activity against mouse B16 cells xenografted in Kunming mouse model assessed as decrease in bcl-2 level at 60 mg/kg, IG measured after 27 days by IHC staining based analysis; type: functional, organism-based; settings: time 27.0 day
B16 [10] = experiment: Downregulation of Bcl-2 expression in mouse B16 cells at 9.70 uM measured after 48 hrs by Western blot analysis; type: functional, cell-based; settings: dose 9.7 µM
PC-3 = experiment: Antiproliferative activity against human PC-3 cells at 25 uM measured after 48 hrs by MTT assay; type: functional, cell-based
B16 [11] = experiment: Anti-melanoma activity against mouse B16 cells xenografted in Kunming mouse model assessed as reduction in tumor volume at 60 mg/kg, IG measured after 5 days; type: functional, organism-based; settings: time 5.0 day
[12] = Toxicity in Kunming mouse assessed as effect on body weight at 60 mg/kg, IG measured after 21 days; type: organism-based; settings: in vivo, po, 504 h, time 21 day
B16 [13] = experiment: Anti-melanoma activity against mouse B16 cells xenografted in Kunming mouse model assessed as increase in caspase 8 expression at 60 mg/kg, IG measured after 27 days by IHC staining based analysis; type: functional, organism-based; settings: time 27.0 day
B16 [14] = experiment: Upregulation of […] expression in mouse B16 cells at 9.70 uM measured after 48 hrs by Western blot analysis; type: functional, cell-based; settings: dose 9.7 µM
B16 [15] = experiment: Upregulation of caspase 8 expression in mouse B16 cells at 9.70 uM measured after 48 hrs by Western blot analysis; type: functional, cell-based; settings: dose 9.7 µM
B16 [16] = experiment: Induction of endoplasmic reticulum (ER) stress in mouse B16 cells assessed as effect on GRP78 expression at 9.70 uM measured after 48 hrs by Western blot analysis; type: functional, cell-based; settings: dose 9.7 µM
B16 [17] = experiment: Anti-melanoma activity against mouse B16 cells xenografted in Kunming mouse model assessed as inhibition of tumor weight at 60 mg/kg, IG measured every two days for 27 days relative to control; type: functional; parameters: scale not given: the % may be the effect or the level left; settings: time 27 day
[18] = Inhibition of cell migration in mouse B16 cells at 9.70 uM measured after 48 hrs by scratch-wound healing assay relative to control; type: functional
B16 [19] = experiment: Anti-melanoma activity against mouse B16 cells xenografted in Kunming mouse model assessed as suppression of tumor weight at 60 mg/kg, IG measured every two days for 27 days (reference value: 10.61+/-1.05g); type: functional; settings: time 27 day
B16 [20] = experiment: Induction of endoplasmic reticulum (ER) stress in mouse B16 cells assessed as effect on CHOP expression at 9.70 uM measured after 48 hrs by Western blot analysis; type: functional, cell-based; settings: dose 9.7 µM
B16 [21] = experiment: Induction of endoplasmic reticulum (ER) stress in mouse B16 cells assessed as decrease in alix expression at 9.70 uM measured after 48 hrs by Western blot analysis; type: functional, cell-based; settings: dose 9.7 µM
B16 [22] = experiment: Anti-melanoma activity against mouse B16 cells xenografted in Kunming mouse model assessed as reduction in tumor volume at 60 mg/kg, IG measured upto 27 days; type: functional, organism-based; settings: time <= 27.0 day
[23] = Induction of apoptosis in mouse B16 cells assessed as necrosis at 19.4 uM measured after 48 hrs by annexin-V/PI double staining based flow cytometry analysis relative to control; type: functional
[24] = Inhibition of cell migration in mouse B16 cells at 9.70 uM measured after 24 hrs by crystal violet staining based analysis relative to control; type: functional
B16 [25] = experiment: Anti-melanoma activity against mouse B16 cells xenografted in Kunming mouse model assessed as increase in caspase 3 expression at 60 mg/kg, IG measured after 27 days by IHC staining based analysis; type: functional, organism-based; settings: time 27.0 day
HCT-116 = experiment: Antiproliferative activity against human HCT-116 cells at 25 uM measured after 48 hrs by MTT assay relative to control; type: functional
B16 [26] = experiment: Antiproliferative activity against mouse B16 cells at 25 uM measured after 48 hrs by MTT assay relative to control; type: functional
BGC-823 = experiment: Antiproliferative activity against human BGC-823 cells at 25 uM measured after 48 hrs by MTT assay relative to control; type: functional
B16 [27] = experiment: Effect on Bcl-2 expression in mouse B16 cells at 9.70 uM measured after 48 hrs by Western blot analysis; type: functional, cell-based; settings: dose 9.7 µM
[28] = Antiproliferative activity against human Prostate tumor cell line at 25 uM measured after 48 hrs by MTT assay relative to control; type: functional

C[C@]12CC[C@H](OC(=O)CN)CC1=CC[C@@H]1[C@@H]2CC[C@]2(C)C(c3cccnc3)=CC[C@@H]12
IC50 (B16 [1]): 221 µM

CC(C)[C@H](N)C(=O)NCC(=O)O[C@H]1CC[C@@]2(C)C(=CC[C@@H]3[C@@H]2CC[C@]2(C)C(c4cccnc4)=CC[C@@H]32)C1
IC50 (B16 [1]): 13.4 µM

C[C@]12CC[C@H](OC(=O)CNC(=O)CN)CC1=CC[C@@H]1[C@@H]2CC[C@]2(C)C(c3cccnc3)=CC[C@@H]12
IC50 (B16 [1]): 177 µM

CC(C)[C@H](NC(=O)CN)C(=O)O[C@H]1CC[C@@]2(C)C(=CC[C@@H]3[C@@H]2CC[C@]2(C)C(c4cnccc4Cl)=CC[C@@H]32)C1
IC50 (B16 [1]): 3.78 µM

CC(C)[C@H](NC(=O)CN)C(=O)O[C@H]1CC[C@@]2(C)C(=CC[C@@H]3[C@@H]2CC[C@]2(C)C(O)=CC[C@@H]32)C1
IC50 (B16 [1]): 16.5 µM

CC(C)[C@H](N)C(=O)N[C@H](C(=O)O[C@H]1CC[C@@]2(C)C(=CC[C@@H]3[C@@H]2CC[C@]2(C)C(O)=CC[C@@H]32)C1)C(C)C
IC50 (B16 [1]): 23.6 µM

CC(=O)O[C@H]1CC[C@@]2(C)C(=CC[C@@H]3[C@@H]2CC[C@]2(C)C(c4ccc(Cl)nc4)=CC[C@@H]32)C1
IC50 (B16 [1]): > 1000 µM

CC(=O)O[C@H]1CC[C@@]2(C)C(=CC[C@@H]3[C@@H]2CC[C@]2(C)C(c4cccnc4)=CC[C@@H]32)C1 [ABIRATERONE ACETATE]
Activity (DU-145): Active
Activity (B16 [2]): inactive
Tmax [3]: 4 h
Activity (B16 [4]): inactive
Activity (B16 [5]): Active
Cmax [6]: 681 ng/mL
Activity [7]: 9%
IC50 (B16 [1]): 28.7 µM
inhibition at 9.7 µM [8]: 61%
Activity (B16 [9]): Active
Activity (B16 [10]): Active
Activity (PC-3): Active
Activity (B16 [11]): Active
Activity [12]: Toxic
Activity (B16 [13]): Active
Activity (B16 [14]): Active
Activity (B16 [15]): Active
Activity (B16 [16]): inactive
Activity (B16 [17]): 76.42%
inhibition at 9.7 µM [18]: 64%
Activity (B16 [19]): 2.5 g
Activity (B16 [20]): inactive
Activity (B16 [21]): Active
Activity (B16 [22]): inactive
Activity [23]: 49.8%
inhibition at 9.7 µM [24]: 51%
Activity (B16 [25]): Active

COc1ccc(C2=CC[C@H]3[C@@H]4CC=C5C[C@@H](OC(C)=O)CC[C@]5(C)[C@H]4CC[C@]23C)cn1
IC50 (B16 [1]): > 1000 µM

CC(C)[C@H](N)C(=O)N[C@@H](C)C(=O)O[C@H]1CC[C@@]2(C)C(=CC[C@@H]3[C@@H]2CC[C@]2(C)C(O)=CC[C@@H]32)C1
Activity (HCT-116): 66%
Activity (B16 [26]): 83.7%
Activity (BGC-823): 81.6%

C[C@]12CC[C@H](O)CC1=CC[C@@H]1[C@@H]2CC[C@]2(C)C(c3ccc(F)nc3)=CC[C@@H]12
IC50 (B16 [1]): 56.4 µM

C[C@]12CC[C@H](OC(=O)CN)CC1=CC[C@@H]1[C@@H]2CC[C@]2(C)C(O)=CC[C@@H]12
IC50 (B16 [1]): 71.6 µM

CC(C)C[C@H](NC(=O)CN)C(=O)O[C@H]1CC[C@@]2(C)C(=CC[C@@H]3[C@@H]2CC[C@]2(C)C(c4cccnc4)=CC[C@@H]32)C1
Activity (B16 [2]): Active
Activity (B16 [27]): inactive
IC50 (B16 [1]): 30.5 µM
Activity (B16 [14]): Active
Activity (B16 [15]): Active

C[C@]12CC[C@H](O)CC1=CC[C@@H]1[C@@H]2CC[C@]2(C)C(c3cccnc3)=CC[C@@H]12 [ABIRATERONE]
Activity (DU-145): Active
Activity (B16 [4]): inactive
IC50 (B16 [1]): 106 µM
Activity (PC-3): Active
Activity (B16 [11]): Active
Activity [12]: Toxic
Activity (B16 [17]): 17.93%
Activity (B16 [19]): 8.7 g
Activity [28]: 69.3%

CC(C)[C@H](NC(=O)CN)C(=O)O[C@H]1CC[C@@]2(C)C(=CC[C@@H]3[C@@H]2CC[C@]2(C)C(c4ccc(F)nc4)=CC[C@@H]32)C1
IC50 (B16 [1]): 3.16 µM

CC(C)C[C@H](N)C(=O)O[C@H]1CC[C@@]2(C)C(=CC[C@@H]3[C@@H]2CC[C@]2(C)C(O)=CC[C@@H]32)C1
IC50 (B16 [1]): > 1000 µM

C[C@]12CC[C@H](OC(=O)[C@@H]3CCCN3C(=O)CN)CC1=CC[C@@H]1[C@@H]2CC[C@]2(C)C(c3cccnc3)=CC[C@@H]12
IC50 (B16 [1]): > 1000 µM

C[C@]12CC[C@H](O)CC1=CC[C@@H]1[C@@H]2CC[C@]2(C)C(c3ccc(Cl)nc3)=CC[C@@H]12
IC50 (B16 [1]): 113 µM
